From ChEMBL document CHEMBL1156454, “Essential requirement for sphingosine kinase 2 in a sphingolipid apoptosis pathway activated by FTY720 analogues” (J Biol Chem, 2007)
Active and inactive are the calls of the source. The rule behind the calls is not given here.

Assays:
Jurkat [1] = experiment: Induction of apoptosis in human Jurkat cells assessed as cell death after 18 hrs; assay type: functional, cell-based
Lymphocyte [2] = experiment: Induction of apoptosis in MRL/MpJ-lpr/lpr mouse spleen lymphocytes assessed as increase in apoptotic cells in spleen at 1 mg/kg, ip by annexin V method; assay type: functional, organism-based; parameters: dose 1 mg/kg
Jurkat [3] = experiment: Induction of apoptosis in human Jurkat cells assessed as PARP cleavage at 5 uM after 16 hrs; assay type: functional, cell-based
Splenocyte [4] = experiment: Induction of apoptosis in mouse primary splenocytes assessed as cell death after 18 hrs; assay type: functional, cell-based
Jurkat [5] = experiment: Inhibition of 2-amino-4-(4-heptyloxyphenyl)-2-methylbutanol-resistant human Jurkat SBR2 mutant cells proliferation after 18 hrs by MTT assay; assay type: functional, cell-based
Jurkat [6] = experiment: Inhibition of wild type human Jurkat cells after 18 hrs by MTT assay; assay type: functional, cell-based
Jurkat [7] = experiment: Inhibition of 2-amino-4-(4-heptyloxyphenyl)-2-methylbutanol-resistant human Jurkat SBR1 mutant cells proliferation after 18 hrs by MTT assay; assay type: functional, cell-based
Jurkat [8] = experiment: Resistance index, ratio of IC50 for 2-amino-4-(4-heptyloxyphenyl)-2-methylbutanol-resistant human Jurkat SBR3 mutant cells to IC50 for human wild type Jurkat cells; assay type: functional
Jurkat [9] = experiment: Resistance index, ratio of IC50 for 2-amino-4-(4-heptyloxyphenyl)-2-methylbutanol-resistant human Jurkat SBR1 mutant cells to IC50 for human wild type Jurkat cells; assay type: functional
Jurkat [10] = experiment: Inhibition of human 2-amino-4-(4-heptyloxyphenyl)-2-methylbutanol-resistant human Jurkat SBR3 mutant cells proliferation after 18 hrs by MTT assay; assay type: functional, cell-based
Jurkat [11] = experiment: Resistance index, ratio of IC50 for 2-amino-4-(4-heptyloxyphenyl)-2-methylbutanol-resistant human Jurkat SBR2 mutant cells to IC50 for human wild type Jurkat cells; assay type: functional
[12] = Cell viability of Sphk2-knock out mouse embryonic fibroblasts assessed as resistant cells after 18 hrs by propidium iodide exclusion assay; assay type: functional, cell-based; conditions: Fibroblast
Jurkat [13] = experiment: Induction of apoptosis in human Jurkat cells assessed as increase in cytosolic calcium levels after 8 hrs; assay type: functional, cell-based
Lymphocyte [14] = experiment: Induction of apoptosis in MRL/MpJ-lpr/lpr mouse thymus lymphocytes assessed as increase in apoptotic cells in thymus at 1 mg/kg, ip by annexin V method; assay type: functional, organism-based; parameters: dose 1 mg/kg
Splenocyte [15] = experiment: Induction of apoptosis in Sphk2-knock out mouse primary splenocytes assessed as resistant cells after 18 hrs by propidium iodide exclusion assay; assay type: functional, cell-based
Splenocyte [16] = experiment: Induction of apoptosis in Sphk1-knock out mouse primary splenocytes assessed as resistant cells after 18 hrs by propidium iodide exclusion assay; assay type: functional, cell-based
Jurkat [17] = experiment: Induction of apoptosis in human Jurkat cells assessed as activation of effector capsases after 18 hrs; assay type: functional, cell-based
Lymphocyte [18] = experiment: Induction of apoptosis in MRL/MpJ-lpr/lpr mouse lymph node lymphocytes assessed as increase in apoptotic cells in lymph nodes at 1 mg/kg, ip by annexin V method; assay type: functional, organism-based; parameters: dose 1 mg/kg
Jurkat [19] = experiment: Induction of apoptosis in human Jurkat SBR1 cells expressing Sphk2 after 18 hrs by MTT assay; assay type: functional, cell-based
[20] = Drug level in MRL/Mpj-lpr/lpr mouse thymus assessed as (R)-2-amino-4-(4-(heptyloxy)phenyl)-2-methylbutyl dihydrogen phosphate levels per mg of tissue at 1 mg/kg, ip after 1 hr; assay type: ADME, organism-based; parameters: dose 1 mg/kg, route intraperitoneal; conditions: in vivo
Jurkat [21] = experiment: Induction of apoptosis in human Jurkat SBR1 mutant cells assessed as activation of effector capsases after 18 hrs; assay type: functional, cell-based
Spleen = experiment: Drug level in MRL/MpJ-lpr/lpr mouse spleen assessed as (R)-2-amino-4-(4-(heptyloxy)phenyl)-2-methylbutyl dihydrogen phosphate levels per mg of tissue at 1 mg/kg, ip after 1 hr; assay type: ADME, organism-based; parameters: dose 1 mg/kg, route intraperitoneal; conditions: in vivo
Jurkat [22] = experiment: Induction of apoptosis in human Jurkat SBR1 cells expressing Sphk1 after 18 hrs by MTT assay; assay type: functional, cell-based
Jurkat [23] = experiment: Reversal of inhibition of mitochondrial function in human Jurkat cells after 18 hrs in presence of Z-VAD-fmk; assay type: functional, cell-based
[24] = molecular target: Sphingosine kinase 1 (Homo sapiens) (UniProt Q9NYA1); experiment: Inhibition of Sphk1 expressed in HEK293 cells; assay type: cell-based
Sphingosine kinase 1 (Homo sapiens), sequence (Q9NYA1 whole entry): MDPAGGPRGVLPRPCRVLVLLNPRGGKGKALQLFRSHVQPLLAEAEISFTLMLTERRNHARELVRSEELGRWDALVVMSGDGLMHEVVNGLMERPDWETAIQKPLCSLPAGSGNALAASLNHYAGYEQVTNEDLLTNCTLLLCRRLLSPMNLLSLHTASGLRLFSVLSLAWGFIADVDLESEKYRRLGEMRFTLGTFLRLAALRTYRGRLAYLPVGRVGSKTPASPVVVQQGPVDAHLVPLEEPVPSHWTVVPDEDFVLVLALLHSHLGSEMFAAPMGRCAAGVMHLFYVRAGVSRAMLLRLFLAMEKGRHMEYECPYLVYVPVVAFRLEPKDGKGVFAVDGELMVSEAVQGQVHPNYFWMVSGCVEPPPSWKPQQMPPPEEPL

Compound	IC50 (Jurkat [5])	IC50 (Jurkat [6])	IC50 (Jurkat [7])	Ratio IC50 (Jurkat [8])	Ratio IC50 (Jurkat [9])	IC50 (Jurkat [10])	Ratio IC50 (Jurkat [11])	other results
CCCCCCCOc1ccc(CC[C@](C)(N)CO)cc1	–	–	–	–	–	–	–	Activity (Jurkat [1]): inactive; Activity (Lymphocyte [2]): Active; Activity (Jurkat [3]): inactive; Activity (Splenocyte [4]): inactive
CCCCCCCCCCCCCCC[C@@H](O)[C@@H](N)CO [DIHYDROSPINGOSINE]	3.68 µM	3.53 µM	4.9 µM	1.8	1.4	6.31 µM	1.3	–
COc1cc([C@@H]2c3cc4c(cc3[C@@H](O[C@@H]3O[C@@H]5CO[C@@H](C)O[C@H]5[C@H](O)[C@H]3O)[C@H]3COC(=O)[C@H]23)OCO4)cc(OC)c1O	–	–	–	–	–	–	–	Activity (Jurkat [5]): Active; Activity (Jurkat [7]): Active; Activity (Jurkat [10]): Active
CCCCCCCCCCCCC/C=C/[C@@H](O)[C@@H](N)CO [SPHINGOSINE]	2.88 µM	2.01 µM	3.48 µM	1.7	1.7	3.38 µM	1.4	Activity [12]: inactive
CCCCCCCCCCCCCC[C@@H](O)[C@@H](O)[C@@H](N)CO (single isomer, unassigned) [PHYTOSPHINGOSINE]	5.29 µM	3.75 µM	6.57 µM	1.1	1.8	4.12 µM	1.4	–
CCCCCCCOc1ccc(CC[C@@](C)(N)CO)cc1	7.72 µM	2.32 µM	8.72 µM	3.1	3.8	7.12 µM	3.3	Activity (Jurkat [13]): Active; Activity (Lymphocyte [14]): inactive; Activity [12]: Active; Activity (Splenocyte [15]): Active; Activity (Splenocyte [16]): inactive; Activity (Jurkat [17]): Active; Activity (Lymphocyte [18]): Active; Activity (Lymphocyte [2]): Active; Activity (Jurkat [19]): Active; Activity [20]: < 0.2 pmol/mg; Activity (Jurkat [21]): inactive; Activity (Jurkat [3]): Active; Activity (Spleen): < 0.2 pmol/mg; Activity (Jurkat [22]): Active
CCCCCCCCc1ccc(CCC(N)(CO)CO)cc1	–	–	–	–	–	–	–	Activity (Jurkat [23]): Active
CCCCCCCOc1ccc(CC[C@@](C)(N)COP(=O)(O)O)cc1	–	–	–	–	–	–	–	Activity (Jurkat [6]): inactive; Activity [24]: inactive; Activity (Splenocyte [4]): inactive
